Source: patent publication US8269043B2, “Bicyclic aryl sphingosine 1-phosphate analogs” (Biogen Idec MA Inc., priority 2008, dated 2012)

tested on: circulating lymphocytes; test: Lymphopenia assay: circulating lymphocytes after oral gavage; format: in vivo; conditions: C57bl/6 male mice, oral gavage 0.5 and 5 mg/kg in 30% HPCD, blood 5 and 24 hours after administration
Procedure: Measurement of circulating lymphocytes: Compounds were dissolved in 30% HPCD. Mice (C57bl/6 male, 6-10 week-old) were administered 0.5 and 5 mg/kg of a compound via oral gavage. 30% HPCD was included as a negative control.
Blood was collected from the retro-orbital sinus 5 and 24 hours after drug administration under short isoflurane anesthesia. Whole blood samples were subjected to hematology analysis. Peripheral lymphocyte counts were determined using an automated analyzer (HEMAVET™ 3700). Three mice were used to assess the lymphocyte depletion activity of each compound screened.
Compounds of formula (I) induced full lymphopenia at times as short as 3 hours or less to as long as 48 hours or more; for example, 4 to 36 hours, or 5 to 24 hours. In some cases, a compound of formula induced full lymphopenia at 5 hours and partial lymphopenia at 24 hours. The dosage required to induce lymphopenia can be in the range of, e.g., 0.001 mg/kg to 100 mg/kg; or 0.01 mg/kg to 10 mg/kg. The dosage can be 10 mg/kg or less, such as 5 mg/kg or less, 1 mg/kg or less, or 0.1 mg/kg or less

| Compound | Lymphopenia (ED50 mg/kg) |
| --- | --- |
| C[C@](N)(CO)c1ccc2c(C(F)(F)F)c(O[C@H]3C[C@H](COCc4ccccc4)C3)ccc2c1 (relative stereo) [Example 82] | <0.5 mg/kg |
| C[C@](N)(CO)c1ccc2cc(O[C@H]3C[C@H](COCc4ccccc4)C3)ccc2c1 (relative stereo) [Example 76] | 0.5 to 5 mg/kg |
| (R)-2-amino-2-(6-(3-(benzyloxy)phenylthio)naphthalen-2-yl)propan-1-ol [Example 155] | <0.5 mg/kg |
| Cl.NC(CO)(CO)c1ccc2cc(O[C@H]3C[C@@H](COCc4ccccc4)C3)ccc2c1 [Example 66] | <0.5 mg/kg |

same assay, conditions: Mus musculus, Lymphocyte, po, C57bl/6 male mice, oral gavage 0.5 and 5 mg/kg in 30% HPCD, blood 5 and 24 hours after administration

| Compound | ED50 |
| --- | --- |
| CC(C)(C)C1CCC(Cc2ccc3cc([C@@](C)(N)CO)ccc3c2)CC1 (stereo partly drawn) [Example 146, (R)-2-amino-2-(6-((4-tert-butylcyclohexyl)methyl)naphthalen-2-yl)propan-1-ol] | 0.5 to 5 mg/kg |
| NC(CO)(CO)c1ccc2cc(Oc3ccc(Oc4ccccc4)cc3)ccc2c1 [Example 245, 2-amino-2-(6-(4-phenoxyphenoxy)naphthalen-2-yl)propane-1,3-diol] | < 0.5 mg/kg |
| C[C@](N)(CO)c1ccc2cc(Oc3cccc(Cl)c3)ccc2c1 [Example 172, (R)-2-Amino-2-(6-(3-chlorophenoxy)naphthalen-2-yl)propan-1-ol] | 0.5 to 5 mg/kg |
| CCOc1ccc(-c2c(O[C@H]3CC[C@H](C(C)(C)C)CC3)ccc3cc([C@@](C)(N)CO)ccc23)cc1 [Example 227, (R)-2-amino-2-(6-(trans-4-tert-butylcyclohexyloxy)-5-(4-ethoxyphenyl)naphthalen-2-yl)propan-1-ol] | 0.5 to 5 mg/kg |
| C[C@](N)(CO)c1ccc2cc(O[C@H]3CC[C@@H](c4ccccc4)CC3)ccc2c1 [Example 30, (R)-2-amino-2-(6-(cis-4-phenylcyclohexyloxy)naphthalen-2-yl)propan-1-ol] | 0.5 to 5 mg/kg |
| CC(C)[C@H]1CC[C@H](Oc2ccc3cc([C@@](C)(N)CO)ccc3c2C(F)(F)F)CC1 [Example 168, (R)-2-Amino-2-(6-(trans-4-isopropylcyclohexyloxy)-5-(trifluoromethyl)naphthalen-2-yl)propan-1-ol] | < 0.5 mg/kg |
| NC(CO)(CO)c1ccc2cc(Oc3cccc(OCCCC(F)(F)F)c3)ccc2c1 [Example 200, 2-Amino-2-(6-(3-(4,4,4-trifluorobutoxy)phenoxy)naphthalen-2-yl)propane-1,3-diol] | < 0.5 mg/kg |
| CC(C)(C)[C@H]1CC[C@H](Oc2ccc3cc([C@@](C)(N)CO)ccc3c2F)CC1 [Example 242, (R)-2-amino-2-(6-(trans-4-tert-butylcyclohexyloxy)-5-fluoronaphthalen-2-yl)propan-1-ol] | < 0.5 mg/kg |
| CC(F)(F)[C@H]1CC[C@@H](Oc2ccc3cc([C@@](C)(N)CO)ccc3c2)CC1 [Example 319, (R)-2-amino-2-(6-(cis-4-(1,1-difluoroethyl)cyclohexyloxy)naphthalen-2-yl)propan-1-ol] | > 5 mg/kg |
| CC(CO)c1ccc2c(C(F)(F)F)c(O[C@H]3CC[C@H](C(C)(C)C)CC3)ccc2c1 (relative stereo) [Example 275, 2-[6-(trans-4-tert-Butyl-cyclohexyloxy)-5-trifluoromethyl-naphthalen-2-yl]-propan-1-ol] | > 5 mg/kg |
| C[C@](N)(CO)c1ccc2cc(Oc3cccc(Br)c3)ccc2c1 [Example 174, (R)-2-Amino-2-(6-(3-bromophenoxy)naphthalen-2-yl)propan-1-ol] | > 5 mg/kg |
| C[C@](N)(CO)c1ccc2cc(OC3CCC4(CCCCC4)CC3)ccc2c1 [Example 133, (2R)-2-amino-2-(6-(spiro[5.5]undecan-3-yloxy)naphthalen-2-yl)propan-1-ol] | 0.5 to 5 mg/kg |
| CC(C)CCOc1cccc(Oc2ccc3cc(C(N)(CO)CO)ccc3c2)c1 [Example 198, 2-Amino-2-(6-(3-(isopentyloxy)phenoxy)naphthalen-2-yl)propane-1,3-diol] | 0.5 to 5 mg/kg |
| CCC(F)(F)[C@H]1CC[C@H](Oc2ccc3cc([C@@](C)(N)CO)ccc3c2)CC1 [Example 305, (R)-2-amino-2-(6-(trans-4-(1,1-difluoropropyl)cyclohexyloxy)naphthalen-2-yl)propan-1-ol] | < 0.5 mg/kg |
| C[C@](N)(CO)c1ccc2c(C(F)(F)F)c(O[C@H]3CC[C@@H](C4CCCCC4)CC3)ccc2c1 [Example 160, (R)-2-Amino-2-(6-(cis-4-cyclohexylcyclohexyloxy)-5-(trifluoromethyl)naphthalen-2-yl)propan-1-ol] | > 5 mg/kg |
| CC(C)(C)[C@H]1CC[C@H](Oc2ccc3cc([C@@](C)(N)CO)ccc3c2-c2cncnc2)CC1 [Example 225, (R)-2-amino-2-(6-(trans-4-tert-butylcyclohexyloxy)-5-(pyrimidin-5-yl)naphthalen-2-yl)propan-1-ol] | > 5 mg/kg |
| CC(C)Oc1ccc(Oc2ccc3cc([C@@](C)(N)CO)ccc3c2)cc1 [Example 189, (R)-2-Amino-2-[6-(4-isopropoxy-phenoxy)-naphthalen-2-yl]-propan-1-ol] | < 0.5 mg/kg |

| Compound | ED50 |
| --- | --- |
| C[C@](N)(CO)c1ccc2cc(Oc3cccc(OC(F)(F)F)c3)ccc2c1 [Example 175, (R)-2-Amino-2-(6-(3-(trifluoromethoxy)phenoxy)naphthalen-2-yl)propan-1-ol] | 0.5 to 5 mg/kg |
| C[C@](N)(CO)c1ccc2cc(OC3CCC(C4CCCCC4)CC3)ccc2c1 (stereo partly drawn) [Example 89, (R)-2-Amino-2-[6-(bicyclohexyl-4-yloxy)-naphthalen-2-yl]-propan-1-ol] | 0.5 to 5 mg/kg |
| CC(C)(C)[C@H]1CC[C@H](Oc2c(Cl)c(Cl)c3cc([C@@](C)(N)CO)ccc3c2Cl)CC1 [Example 240, (R)-2-amino-2-(6-(trans-4-tert-butylcyclohexyloxy)-5,7,8-trichloronaphthalen-2-yl)propan-1-ol] | > 5 mg/kg |
| CC(C)(C)[C@H]1CC[C@H](Oc2ccc3cc([C@@](C)(N)CO)ccc3c2-c2ccc(S(C)(=O)=O)cc2)CC1 [Example 223, (R)-2-amino-2-(6-(trans-4-tert-butylcyclohexyloxy)-5-(4-(methylsulfonyl)phenyl)naphthalen-2-yl)propan-1-ol] | > 5 mg/kg |
| CCCC(F)(F)[C@H]1CC[C@H](Oc2ccc3cc([C@@](C)(N)CO)ccc3c2)CC1 [Example 311, (R)-2-amino-2-(6-(trans-4-(1,1-difluorobutyl)cyclohexyloxy)naphthalen-2-yl)propan-1-ol] | < 0.5 mg/kg |
| C[C@](N)(CO)c1ccc2cc(Oc3ccc(F)c(F)c3)ccc2c1 [Example 183, (R)-2-Amino-2-(6-(3,4-difluorophenoxy)naphthalen-2-yl)propan-1-ol] | 0.5 to 5 mg/kg |
| CC(N)(CO)c1ccc2c(C(F)(F)F)c(O[C@H]3CC[C@H](C(C)(C)C)CC3)ccc2c1 (relative stereo) [Example 276, 2-Amino-2-[6-(trans-4-tert-butyl-cyclohexyloxy)-5-trifluoromethyl-naphthalen-2-yl]-propan-1-ol] | < 0.5 mg/kg |
| CCC(C)C1CCC(Oc2ccc3cc([C@@](C)(N)CO)ccc3c2)CC1 (stereo partly drawn) [Example 97, (R)-2-Amino-2-[6-(4-sec-butyl-cyclohexyloxy)-naphthalen-2-yl]-propan-1-ol] | 0.5 to 5 mg/kg |
| CC(C)(C)[C@H]1CC[C@H](Oc2ccc3cc([C@@](C)(N)CO)ccc3c2-c2ccccc2)CC1 [Example 229, (R)-2-amino-2-(6-(trans-4-tert-butylcyclohexyloxy)-5-phenylnaphthalen-2-yl)propan-1-ol] | > 5 mg/kg |
| C[C@](N)(CO)c1ccc2cc(Oc3ccc(Cl)cc3)ccc2c1 [Example 173, (R)-2-Amino-2-(6-(4-chlorophenoxy)naphthalen-2-yl)propan-1-ol] | 0.5 to 5 mg/kg |
| C[C@](N)(CO)c1ccc2cc(OC3CCC4CCCCC4C3)ccc2c1 (stereo partly drawn) [Example 87, (R)-2-Amino-2-[6-(decahydro-naphthalen-2-yloxy)-naphthalen-2-yl]-propan-1-ol] | 0.5 to 5 mg/kg |
| CC(C)C1CCC(Oc2ccc3cc([C@@](C)(N)CO)ccc3c2)CC1 (stereo partly drawn) [Example 91, (R)-2-Amino-2-[6-(4-isopropyl-cyclohexyloxy)-naphthalen-2-yl]-propan-1-ol] | 0.5 to 5 mg/kg |
| CC(C)c1cccc(Oc2ccc3cc([C@@](C)(N)CO)ccc3c2)c1 [Example 177, (R)-2-Amino-2-(6-(3-isopropylphenoxy)naphthalen-2-yl)propan-1-ol] | > 5 mg/kg |
| CC(C)(C)[C@H]1CC[C@H](Oc2ccc3cc([C@@](C)(N)CO)ccc3c2C2CC2)CC1 [Example 215, (R)-2-amino-2-(6-(trans-4-tert-butylcyclohexyloxy)-5-cyclopropylnaphthalen-2-yl)propan-1-ol] | < 0.5 mg/kg |
| CC(C)(C)[C@H]1CC[C@H](Oc2ccc3cc([C@@](C)(N)CO)ccc3c2-c2ccc(OC(F)(F)F)cc2)CC1 [Example 221, (R)-2-amino-2-(6-(trans-4-tert-butylcyclohexyloxy)-5-(4-(trifluoromethoxy)phenyl)naphthalen-2-yl)propan-1-ol] | > 5 mg/kg |
| NC(CO)(CO)c1ccc2cc(Oc3cccc(OCCc4ccccc4)c3)ccc2c1 [Example 197, 2-Amino-2-(6-(3-phenethoxyphenoxy)naphthalen-2-yl)propane-1,3-diol] | < 0.5 mg/kg |
| CN[C@@](C)(CO)c1ccc2cc(OC3CCC(C(C)(C)C)CC3)ccc2c1 (stereo partly drawn) [Example 112, (R)-2-[6-(4-tert-butyl-cyclohexyloxy)-naphthalen-2-yl]-2-methylamino-propan-1-ol] | 0.5 to 5 mg/kg |
